Experiments:
HAdV5 = assay: HAdV-mediated endosome disruption (α-sarcin co-delivery, HPG incorporation); assay type: cell-based, human adenovirus (HAdV5)
Description: A549 cells (2 × 10^4 cells/well) were incubated in DMEM without cysteine or methionine supplemented with 10% dialyzed FBS [DMEM(−)] in black 96-well plates for 1 h prior to infection. Three-fold serial dilutions (0.45 ng–1,000 ng) of HAdV5, or AdV2ts1 were preincubated with cells in the presence of 10-fold IC50 concentration of the compounds obtained in the plaque assay or the same volume of DMSO for positive control for 1 h. The medium was then removed and replaced with 50 μL DMEM(−) containing 0.1 mg/ml α-sarcin (Santa Cruz Biotechnology, Dallas, Texas, USA) and drug mixtures. After 1 h at 37°C, the Click-iT L-homopropargylglycine (HPG) Alexa Fluor 488 Protein Synthesis Assay Kits (Invitrogen) was used to analyse protein synthesis according to the manufacturer’s instructions. The incorporation of the amino acid analogue of methionine HPG containing Alexa Fluor 488 azide was measured using a Typhoon 9410 imager (GE Healthcare Life Sciences) and calculated by subtracting the background level of the control well containing HPG and α-sarcin but not the virus (100% incorporation).

HAdV5-GFP [1] = assay: Initial rapid screening, HAdV5-mediated GFP expression in A549 cells; assay type: cell-based, human adenovirus (HAdV5); conditions: 50 µM, 2,000 vp/cell, 48 h
Description: An initial rapid screening was performed using human A549 cells (3 × 10^5 cells/well) infected with HAdV5-GFP with a multiplicity of infection (MOI) of 2,000 vp/cell in the presence of 50 μM of the candidate antiviral compounds. Briefly, a standard infection curve was generated in parallel by infecting cells in the absence of compounds using serial two-fold dilutions of virus. Cells, virus and compounds were incubated for 48 h at 37°C and 5% CO2. Infection, as measured by HAdV5-mediated GFP expression, was analyzed using a Typhoon 9410 imager (GE Healthcare Life Sciences), and quantified with ImageQuantTL (GE Healthcare Life Sciences). All reactions were done in triplicate.

wild-type HAdV5 [2] = assay: Nuclear-associated HAdV genomes (qPCR after nuclear isolation); assay type: cell-based, human adenovirus (HAdV5); conditions: 10-fold IC50; 45 min after synchronized infection; A549
Description: Nuclear delivery of HAdV genomes was assessed using qPCR following nuclear isolation from infected cells. Briefly, 1 × 10^6 A549 cells in 6-well plates were infected either with wild-type HAdV5 at an MOI of 2,000 vp/cell in the presence of a 10-fold IC50 concentration of the compounds obtained in the plaque assay or the same volume of DMSO as the positive control. Forty-five minutes after infection, the A549 cells were trypsinized, collected, and washed twice with PBS. The cell pellet was resuspended in 500 μL of 1×hypotonic buffer (20 mM Tris-HCl pH 7.4, 10 mM NaCl, 3 mM MgCl2) and incubated for 15 min at 4°C. Then, 25 μL of NP-40 was added and the samples were vortexed. The homogenates were centrifuged for 10 min at 835 g at 4°C. Following the removal of the cytoplasmic fraction (supernatant), HAdV DNA was isolated from the nuclear (pellet) and cytoplasmic fractions using the E.Z.N.A.® Tissue DNA Kit (Omega Bio-tek, Norcross, GA).

p53/MDM2 complex = assay type: cell-based, Human; conditions: HAdV5-infected A549 cells; 10-fold IC50; 24 h
Description: A549 cells were seeded at a density of 1.5 × 10^5 cells per well in a 24-well plate at a high density and 3.75 × 10^4 cells per well at a low density. […] The culture medium was then aspirated and washed with 1X with cold PBS. Later, 200 μL RIPA Lysis Buffer (1% v/v NP-40, 20 mM Tris-HCL pH 7.4, 5 mM Sodium Pyrophosphate, 5 mM EDTA) with freshly added proteinase inhibitor cocktail (Thermo Fisher Scientific) was added to each well and swirled to distribute it evenly. Cells were then scraped and collected to incubate them for 30 min on ice and finally centrifuged at 13,000 × g for 5 min at 4°C. […] This assay was performed in triplicate.

HAdV5-GFP [3] = assay: microbe, parasite or virus in culture; assay type: cell-based, human adenovirus (HAdV5); conditions: HAdV5-GFP; 293β5 cells; MOI 0.06 vp/cell; 7 days; read-out: IC50 plaque assay
Description: Compounds were tested using low MOI infections (0.06 vp/cell), initially at concentrations of 10 μM and subsequently in a dose-response assay ranging from 10 μM to 2.44 nM in a plaque assay. Briefly, 293β5 cells were seeded in 6-well plates at a density of 1 × 10^6 cells per well in duplicate for each condition. When the cells reached 80%–90% confluency, they were infected with HAdV5-GFP and rocked for 2 h at 37°C. After the incubation, the inoculum was removed and the cells were washed once with PBS. Cells were then carefully overlaid with equal parts of 4 mL/well 1.6% ([…]) Difco Agar Noble (Becton, Dickinson & Co., Sparks, MD, USA) and 2× Eagle’s Minimum Essential Medium (EMEM; BioWhittaker) supplemented with 2×penicillin/streptomycin, 2× L-glutamine, and 10% FBS. The mixture also contained the compounds in the concentration ranges described above. Following incubation for 7 days at 37°C, plates were scanned with a Typhoon FLA 9000 imager (GE Healthcare Life Sciences) and the formed plaques were quantified with ImageJ ([Schneider et al., 2012]). Plaque counting was performed to calculate the 50% inhibitory concentration (IC50) of each compound using the statistical software GraphPad Prism 6.

A549 cells = assay: Cytotoxicity assay (AlamarBlue); assay type: cell-based, Human; conditions: 48 h
Description: The cytotoxicity of the molecules was analyzed using the commercial kit AlamarBlue® (Invitrogen, Ref. DAL1025) according to the manufacturer’s instructions. Briefly, A549 cells were seeded at a density of 5 × 10^3 cells per well in 96-well plates, and decreasing serial dilutions of each molecule were diluted in 100 μL of DMEM starting at 200 μM. The cells were then incubated at 37°C for 48 h following the manufacturer’s protocol. The cytotoxic concentration 50% (CC50) value was obtained using the statistical software GraphPad Prism 6. The assay was performed in duplicate.

HCMV = assay: Impact on HCMV replication (qPCR of HCMV DNA in HFF); assay type: cell-based, human cytomegalovirus; conditions: 2-fold IC50 (HAdV plaque assay), 72 h
Description: To test the anti-HCMV activity of these rotenolone-related compounds, human foreskin fibroblasts (HFF; ATCC, Manassas, VA) were seeded in a 24-well plate (8.3 × 10^4 cells/well), infected with HCMV (MOI 0.05 vp/cell), and incubated in complete DMEM in the presence of either 2-fold IC50 concentration of each compound obtained in the plaque assay against HAdV or the same volume of DMSO (positive control) in duplicate. The cells were incubated for 72 h at 37°C and 5% CO2 and HCMV DNA was purified from the cell lysate using E.Z.N.A Tissue DNA Kit (Omega Biotek, Norcross, GA, USA) following the manufacturer’s instructions. The qPCR primers, conditions, and protocols were the same as previously reported ([Mazzotta et al., 2020b]).

wild-type HAdV5 [4] = assay: HAdV yield reduction (burst) assay, TCID50 end-point dilution; assay type: cell-based, human adenovirus (HAdV5); conditions: 10-fold IC50 concentration; TCID50/ml compound vs. DMSO; A549 cells; 48 h; MOI 100 vp/cell
Description: A549 cells (1.5 × 10^5 cells/well in a 24-well plate) were incubated 24 h in 500 μL of complete DMEM and they were infected with wild-type HAdV5 (MOI 100 vp/cell) when more than 90% of confluency was observed. Infected cells were incubated for 48 h at 37°C in 500 μL of either complete DMEM containing 10-fold IC50 concentration of compounds obtained in the plaque assay or the same volume of DMSO (positive control). After 48 h, the cells were harvested and subjected to three rounds of freeze/thaw. Serial dilutions of the clarified lysates were titrated against A549 cells (3 × 10^4 cells/well in a 96-well plate) and TCID50 values were calculated using an end-point dilution method ([Reed and Muench, 1938]).

Chain of p53/MDM2 complex (P04637 whole entry): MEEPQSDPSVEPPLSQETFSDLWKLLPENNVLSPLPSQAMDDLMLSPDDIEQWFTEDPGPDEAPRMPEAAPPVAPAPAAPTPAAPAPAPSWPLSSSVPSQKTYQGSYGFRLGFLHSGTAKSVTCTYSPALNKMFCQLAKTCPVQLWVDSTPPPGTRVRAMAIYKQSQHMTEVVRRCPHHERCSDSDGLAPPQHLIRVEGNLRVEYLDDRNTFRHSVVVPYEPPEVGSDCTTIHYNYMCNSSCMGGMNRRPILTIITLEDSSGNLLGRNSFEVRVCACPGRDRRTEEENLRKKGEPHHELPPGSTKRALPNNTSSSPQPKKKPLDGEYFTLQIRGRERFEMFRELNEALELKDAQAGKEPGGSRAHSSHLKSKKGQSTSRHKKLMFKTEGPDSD
Chain of p53/MDM2 complex (Q00987 whole entry, further chain): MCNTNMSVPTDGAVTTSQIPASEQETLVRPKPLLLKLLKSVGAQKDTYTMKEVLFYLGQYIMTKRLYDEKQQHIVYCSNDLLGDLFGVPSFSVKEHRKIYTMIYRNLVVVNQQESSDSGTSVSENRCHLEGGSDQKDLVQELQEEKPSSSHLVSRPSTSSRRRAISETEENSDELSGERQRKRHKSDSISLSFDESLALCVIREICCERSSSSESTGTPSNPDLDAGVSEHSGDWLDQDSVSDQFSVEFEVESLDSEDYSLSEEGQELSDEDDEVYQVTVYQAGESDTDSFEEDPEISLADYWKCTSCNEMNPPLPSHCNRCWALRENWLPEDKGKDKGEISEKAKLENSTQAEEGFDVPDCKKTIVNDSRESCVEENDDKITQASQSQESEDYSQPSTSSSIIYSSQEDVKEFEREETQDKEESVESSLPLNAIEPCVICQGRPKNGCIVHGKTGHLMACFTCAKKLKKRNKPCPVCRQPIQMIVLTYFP

(2R,6S,6aR,12aS)-8,9-dimethoxy-2-(prop-1-en-2-yl)-1,2,6,6a,12,12a-hexahydrochromeno[3,4-b]furo[2,3-h]chromen-6-ol [Rotenolone]
HPG incorporation (HAdV5; compared with a control without α-sarcin, 10-fold IC50, independent of virus concentration): approximately 30% | attenuation of HAdV-mediated endosomolysis (HAdV5; α-sarcin assay): did not attenuate | inhibition of HAdV5-GFP transgene expression (HAdV5-GFP [1]): 100% | accessibility of HAdV genomes to the nucleus (wild-type HAdV5 [2]): did not block | concentration of p53/MDM2 complexes, high vs low cell density (p53/MDM2 complex): significant difference | IC50 (HAdV5-GFP [3]): 0.03 µM | CC50 (A549 cells): 17.1 ± 0.4 µM | inhibition of HCMV replication (HCMV): 85.2% | Virus Yield Fold-reduction (wild-type HAdV5 [4]): 1.3E+04 ± 4582.5 fold

Reference: publication PMC10808720 (Frontiers in Pharmacology, 2024)
